Measurements from US7767659B2, “Synthesis of naturally occurring ecteinascidins and related compounds” (Pharma Mar, S.A., priority 2002, dated 2010).

Experiments:
[1] = tested on: LNCaP; test: Inhibition of cells growth by colorimetric assay (SRB); conditions: Homo sapiens, LNCaP, 48 h; for GI50: read-out: LNCAP GI50; for CC50: read-out: LNCAP LC50; for IC (TGI): read-out: LNCAP TGI
Experimental: (§1) This form of the assay employs 96 well cell culture microplates of 9 mm diameter (Faircloth, 1988; Mosmann, 1983). Most of the cell lines are obtained from American Type Culture Collection (ATCC) derived from different human cancer types.
(§2) Cells are maintained in RPMI 1640 10% FBS, supplemented with 0.1 g/l penicillin and 0.1 g/l streptomycin sulfate and then incubated at 37° C., 5% CO2 and 98% humidity. For the experiments, cells were harvested from subconfluent cultures using trypsin and resuspended in fresh medium before plating.
(§3) Cells are seeded in 96 well microtiter plates, at 5×10^3 cells per well in aliquots of 195 μl medium, and they are allowed to attach to the plate surface by growing in drug free medium for 18 hours. Afterward, samples are added in aliquots of 5 μl in a ranging from 10 to 10^−8 μg/ml, dissolved in DMSO/EtOH/PBS (0.5:0.5:99). After 48 hours exposure, the antitumor effect are measured by the SRB methodology: cells are fixed by adding 50 μl of cold 50% (wt/vol) trichloroacetic acid (TCA) and incubating for 60 minutes at 4° C. Plates are washed with deionized water and dried. One hundred μl of SRB solution (0.4% wt/vol in 1% acetic acid) is added to each microtiter well and incubated for 10 minutes at room temperature. Unbound SRB is removed by washing with 1% acetic acid. Plates are air dried and bound stain is solubilzed with Tris buffer. Optical densities are read on a automated spectrophotometric plate reader at a single wavelength of 490 nm.
(§4) The values for mean +/− SD of data from triplicate wells are calculated. Some parameters for cellular responses can be calculated: GI=growth inhibition, TGI=total growth inhibition (cytostatic effect) and LC=cell killing (cytotoxic effect).

[2] = tested on: LoVo-Dox; test: as above; conditions: Homo sapiens, 48 h; for GI50: read-out: LOVO-DOX GI50; for CC50: read-out: LOVO-DOX LC50; for IC (TGI): read-out: LOVO-DOX TGI
Experimental: as §1, §2, §3, §4

[3] = tested on: SK-MEL-28; test: as above; conditions: Homo sapiens, SK-MEL-28, 48 h; for GI50: read-out: MEL-28 GI50; for CC50: read-out: MEL-28 LC50; for IC (TGI): read-out: MEL-28 TGI
Experimental: as §1, §2, §3, §4

[4] = tested on: HeLa; test: as above; conditions: Homo sapiens, HeLa, 48 h; for GI50: read-out: HELA GI50; for CC50: read-out: HELA LC50; for IC (TGI): read-out: HELA TGI
Experimental: as §1, §2, §3, §4

[5] = tested on: DU-145; test: as above; conditions: Homo sapiens, DU-145, 48 h; for GI50: read-out: DU145 GI50; for CC50: read-out: DU145 LC50; for IC (TGI): read-out: DU145 TGI
Experimental: as §1, §2, §3, §4

[6] = tested on: PANC-1; test: as above; conditions: Homo sapiens, PANC-1, 48 h; for GI50: read-out: PANC-1 GI50; for CC50: read-out: PANC-1 LC50; for IC (TGI): read-out: PANC-1 TGI
Experimental: as §1, §2, §3, §4

[7] = tested on: K-562; test: as above; conditions: Homo sapiens, K562, 48 h; for GI50: read-out: K562 GI50; for CC50: read-out: K562 LC50; for IC (TGI): read-out: K562 TGI
Experimental: as §1, §2, §3, §4

[8] = tested on: IGROV-1; test: as above; conditions: Homo sapiens, IGROV-1, 48 h; for GI50: read-out: IGROV GI50; for CC50: read-out: IGROV LC50; for IC (TGI): read-out: IGROV TGI
Experimental: as §1, §2, §3, §4

[9] = tested on: HeLa-APL; test: as above; conditions: Homo sapiens, 48 h; for GI50: read-out: HELA-APL GI50; for CC50: read-out: HELA-APL LC50; for IC (TGI): read-out: HELA-APL TGI
Experimental: as §1, §2, §3, §4

[10] = tested on: IGROV-ET; test: as above; conditions: Homo sapiens, 48 h; for GI50: read-out: IGROV-ET GI50; for CC50: read-out: IGROV-ET LC50; for IC (TGI): read-out: IGROV-ET TGI
Experimental: as §1, §2, §3, §4

[11] = tested on: HT-29; test: cells; conditions: Homo sapiens, HT-29, 48 h; for GI50: read-out: HT29 GI50; for CC50: read-out: HT29 LC50; for IC (TGI): read-out: HT29 TGI
Experimental: as §1, §2, §3, §4

[12] = tested on: LoVo; test: cells; conditions: Homo sapiens, LoVo, 48 h; for GI50: read-out: LOVO GI50; for CC50: read-out: LOVO LC50; for IC (TGI): read-out: LOVO TGI
Experimental: as §1, §2, §3, §4

[13] = tested on: A-549; test: cells; conditions: Homo sapiens, A549, 48 h; for GI50: read-out: A549 GI50; for CC50: read-out: A549 LC50; for IC (TGI): read-out: A549 TGI
Experimental: as §1, §2, §3, §4

| Compound | GI50 [1] | CC50 [1] | IC (TGI) [1] | GI50 [2] | CC50 [2] | IC (TGI) [2] | GI50 [3] | CC50 [3] | IC (TGI) [3] | GI50 [4] | CC50 [4] | IC (TGI) [4] | GI50 [5] | CC50 [5] | IC (TGI) [5] | GI50 [6] | CC50 [6] | IC (TGI) [6] | GI50 [7] | CC50 [7] | other results |
| --- | --- | --- | --- | --- | --- | --- | --- | --- | --- | --- | --- | --- | --- | --- | --- | --- | --- | --- | --- | --- | --- |
| C=CCN1[C@@H]2c3c(cc(C)c(OC)c3O)C[C@H]1[C@H](C#N)N1C2[C@@H]2SC[C@]3(NCCc4c3[nH]c3ccccc43)C(=O)OC[C@H]1c1c3c(c(C)c(OC(C)=O)c12)OCO3 (stereo partly drawn) [compound 55] | 0.0171 µM | 0.0757 µM | 0.036 µM | 0.333 µM | 12.7 µM | 1.57 µM | 0.0886 µM | 0.698 µM | 0.265 µM | 0.148 µM | 0.887 µM | 0.363 µM | 0.059 µM | 12.7 µM | 0.247 µM | 0.148 µM | 12.7 µM | 1.9 µM | 0.0584 µM | 1.04 µM | IC (TGI) [7]: 0.272 µM; GI50 [8]: 0.0692 µM; CC50 [8]: 1.58 µM; IC (TGI) [8]: 0.271 µM; GI50 [9]: 0.111 µM; CC50 [9]: 0.915 µM; IC (TGI) [9]: 0.323 µM; GI50 [10]: 0.248 µM; CC50 [10]: 4.18 µM; IC (TGI) [10]: 0.624 µM; GI50 [11]: 0.0757 µM; CC50 [11]: 12.7 µM; IC (TGI) [11]: 1.81 µM; GI50 [12]: 0.151 µM; CC50 [12]: 0.837 µM; IC (TGI) [12]: 0.356 µM; GI50 [13]: 0.0684 µM; CC50 [13]: 1.22 µM; IC (TGI) [13]: 0.286 µM |
| COc1c(C)cc2c(c1O)[C@H]1N[C@@H](C2)[C@H](C#N)N2C1[C@@H]1SCC(=O)C(=O)OC[C@H]2c2c3c(c(C)c(OC(C)=O)c21)OCO3 (stereo partly drawn) [compound 42] | 0.00596 µM | 0.0637 µM | 0.0224 µM | 0.515 µM | 16.5 µM | 1.44 µM | 0.0301 µM | 0.107 µM | 0.0568 µM | 0.0281 µM | 0.139 µM | 0.0625 µM | 0.0374 µM | 0.247 µM | 0.0825 µM | 0.039 µM | 5.27 µM | 0.0115 µM | 0.0178 µM | 0.694 µM | IC (TGI) [7]: 0.0596 µM; GI50 [8]: 0.0286 µM; CC50 [8]: 0.153 µM; IC (TGI) [8]: 0.0663 µM; GI50 [9]: 0.0346 µM; CC50 [9]: 0.13 µM; IC (TGI) [9]: 0.067 µM; GI50 [10]: 0.28 µM; CC50 [10]: 16.5 µM; IC (TGI) [10]: 1.02 µM; GI50 [11]: 0.0397 µM; CC50 [11]: 16.5 µM; IC (TGI) [11]: 0.131 µM; GI50 [12]: 0.0377 µM; CC50 [12]: 2.93 µM; IC (TGI) [12]: 0.0726 µM; GI50 [13]: 0.0574 µM; CC50 [13]: 2.37 µM; IC (TGI) [13]: 0.147 µM |
